What all share (assay type): in vitro ADME
A short description of data set [1]: Rat liver microsomal (RLM) stability assay. Conditions: both sexes, pH 7.4, rat liver microsomes, 3 μM test compound; for microsomal CLint at 3 μM: read-out: CLint (μL/min/mg protein) RLM; for half-life at 3 μM: read-out: T½ (min) RLM. The method, then: (§1) The metabolic stability of fluoroperhexiline derivatives was measured by determination of the rate of compound disappearance when incubated in the presence of both human and rat liver microsomes. Liver microsomes are prepared from the endoplasmic reticulum of hepatocytes and are the primary source of the most important enzymes (cytochrome P450) involved in drug metabolism. Study of drug stability in the presence of liver microsomes is accepted as a valuable model permitting rapid prediction of in vivo drug stability.
(§2) Human and rat liver microsomes were obtained from a commercial source. Test compounds (3 μM) were incubated with pooled liver microsomes (male and female). Samples were incubated for a 45 minute period and removed at 5 time points and test compounds were analysed by LC-MS/MS.
(§3) Microsomes (final protein concentration 0.5 mg/mL), 0.1 M phosphate buffer pH 7.4, and test compound (final concentration 3 μM; diluted from 10 mM stock solution to give a final DMSO concentration of 0.25%) were incubated at 37° C. prior to the addition of NADPH (final concentration 1 mM) to initiate the reaction. The final incubation volume was 25 μL. A control incubation was included for each compound tested, where 0.1 M phosphate buffer pH 7.4 was added instead of NADPH. The control compounds testosterone and 7-hydroxycoumarin were included in each experiment and all incubations were performed singularly for each compound.
(§4) Each compound was incubated for 0, 5, 15, 30, and 45 minutes. The control (minus NADPH) was incubated for 45 minutes only. The reactions were stopped by the addition of 50 μL methanol containing internal standard at the appropriate time points. The incubation plates were centrifuged at 2500 rpm for 20 minutes at 4° C. to precipitate the protein.
(§5) Following protein precipitation, the sample supernatants were combined in cassettes of up to 4 compounds and analysed using standard LC-MS/MS conditions.
(§6) From a plot of the natural logarithm of the peak area ratio (i.e., the ratio of compound peak area:internal standard peak area) against time, the gradient of the line was determined. Subsequently, half-life and intrinsic clearance were calculated using the equations below:
(§7) Eliminated Rate Constant (k)=(−Gradient).
(§8) Half-Life (t1/2) (min)=0.063/k.
(§9) Intrinsic Clearance (CLint) […]=(V×0.693)/t1/2. • wherein V=Incubation Volume (μL/mg microsomal protein).

Data set [2] in a line: Human liver microsomal (HLM) stability assay. The settings on record: for microsomal CLint at 3 μM / half-life at 3 μM: both sexes, pH 7.4, human liver microsomes, 3 μM test compound; for microsomal CLint at 3 μM: read-out: CLint (μL/min/mg protein) HLM; for half-life at 3 μM: read-out: T½ (min) HLM; for metabolic stability compared with perhexiline (in words): human and rat liver microsomes, versus perhexiline. The protocol: as §1, §2, §3, §4, §5, §6, §7, §8, §9
A general note: Liver microsomes are a subcellular fraction often used to study metabolism.

The target of another data set is T1, CYP2D6 (Homo sapiens, UniProt P10635).
T1 construct: purchased Cypex Ltd; host or cells: bacterial membranes (Bactosomes)
Description: Cytochrome P450 2D6 reaction phenotyping (Bactosomes). Conditions: for stability towards CYP2D6 compared with perhexiline (in words): versus perhexiline; for half-life at 5 μM: human, pH 7.4, read-out: T½. The method, then:
The stability of fluoroperhexiline derivatives towards CYP2D6-mediated metabolism was measured by determination of the rate of compound disappearance when incubated in the presence CYP2D6 recombinant isoform expression systems (Bactosomes™). The percentage of parent compound remaining at each time point (following correction for any loss in the incubations with the control bactosomes) is calculated. cDNA expressed human CYP450 enzyme preparations co-expressed with human NADPH cytochrome P450 reductase (Bactosomes™) are supplied by Cypex Ltd. Bactosomes™ are stored at −80° C. prior to use. […] Incubations are also performed using control bactosomes (no P450 enzymes present) to reveal any non-enzymatic degradation. The final incubation volume is 25 μL. A compound known to be metabolised specifically by CYP2D6 isoform is used as a control compound. Each compound is incubated singly for 0, 5, 15, 30 and 45 min with each isoform. The reactions are stopped by the addition of 50 μL methanol containing internal standard at the appropriate time points. The incubation plates are centrifuged at 2500 rpm for 20 min at 4° C. to precipitate the protein. Following protein precipitation, the sample supernatants are combined in cassettes of up to four compounds and analysed using Cyprotex generic LC-MS/MS conditions. The natural logarithm of the peak area ratio (which has been corrected for any loss in the incubations with the control bactosomes) is plotted against time and the gradient of the line determined. Elimination Rate Constant (k)=(−Gradient).

[3] abbreviates: recombinant CYP2D6 Bactosomes, 5 μM test compound.

T1 sequence (P10635 whole entry): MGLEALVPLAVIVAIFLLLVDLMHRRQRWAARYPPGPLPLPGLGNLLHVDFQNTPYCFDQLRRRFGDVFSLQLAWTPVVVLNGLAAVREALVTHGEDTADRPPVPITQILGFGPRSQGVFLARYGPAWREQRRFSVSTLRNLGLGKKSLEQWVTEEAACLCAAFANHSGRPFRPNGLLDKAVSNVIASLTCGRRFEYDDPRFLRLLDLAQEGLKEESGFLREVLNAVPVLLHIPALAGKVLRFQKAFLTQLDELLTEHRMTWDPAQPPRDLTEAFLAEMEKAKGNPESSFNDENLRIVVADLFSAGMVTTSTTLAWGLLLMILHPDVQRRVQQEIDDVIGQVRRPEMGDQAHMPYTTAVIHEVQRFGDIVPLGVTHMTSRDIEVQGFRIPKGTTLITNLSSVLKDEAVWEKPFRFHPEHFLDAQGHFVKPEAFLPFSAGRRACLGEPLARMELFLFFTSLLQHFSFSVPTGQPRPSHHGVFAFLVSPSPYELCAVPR

`FC1(F)CCC(C(CC2CCCCN2)C2CCCCC2)CC1` (mixture of isomers) [FPER-001, 2-(2-Cyclohexyl-2-(4,4-difluorocyclohexyl)ethyl)piperidine]: in data set [1], the microsomal CLint at 3 μM is 19 µL/min/mg and the half-life at 3 μM came out at 72 min. For the same compound, in data set [2], the microsomal CLint at 3 μM stood at 2.6 µL/min/mg, the half-life at 3 μM is 525 min and the “metabolic stability compared with perhexiline (in words)” value is “substantial increase in metabolic stability”. The “T½” value on CYP2D6 (setting [3]) turned out to be 1.73 h. Moreover, the “stability towards CYP2D6 compared with perhexiline (in words)” value on CYP2D6 is reported as “substantial increase in stability towards CYP2D6”.
Regarding `FC1CCC(C(CC2CCCCN2)C2CCCCC2)CC1` (mixture of isomers) [FPER-003, 2-(2-Cyclohexyl-2-(4-fluorocyclohexyl)ethyl)piperidine], in data set [1], the microsomal CLint at 3 μM was determined as 129 µL/min/mg and the half-life at 3 μM was determined as 11 min. Further, in data set [2], the microsomal CLint at 3 μM stood at 21.3 µL/min/mg, the half-life at 3 μM came to 65 min and the “metabolic stability compared with perhexiline (in words)” value was “substantial decrease in stability”. Further, the half-life at 5 μM at CYP2D6 (setting [3]) turned out to be 0.267 h. The “stability towards CYP2D6 compared with perhexiline (in words)” value at CYP2D6 is “no increase in stability”.
`C1CCC(C(CC2CCCCN2)C2CCCCC2)CC1` (stereo not shown) [Perhexiline, 2-(2,2-dicyclohexylethyl)piperidine]: the microsomal CLint at 3 μM in data set [1] was found to be 65 µL/min/mg; in data set [2], 13.8 µL/min/mg. Besides, the values for the half-life at 3 μM in data set [1] and in data set [2] were 21 min and 100 min, respectively. For the same compound, the half-life at 5 μM at CYP2D6 (setting [3]) was determined as 0.233 h.
